Test results published in patent publication US20070249988A1, “Electrotransport Delivery of Nesiritide” (ALZA CORPORATION, priority 2006, published 2007).

Assays:
[1] = Stability under donor conditions (buffer, RP-HPLC); type: physicochemical
Protocol: The stability of nesiritide at 32° C. under both donor and receptor conditions was evaluated.
(§1) The peptide was incubated in various buffer systems, both with and without human epidermis, at concentrations to be used for donor solutions. Experiments were conducted at 32° C. for 8 hours and 24 hours. The solutions were separated into portions and analyzed by RP-HPLC using the conditions described in the table below, both directly and after dilution to give a concentration of nesiritide at ˜100 μg/mL. In some cases, donor solutions were also removed and analyzed following ET Flux experiments.

hairless guinea pigs = test: Skin irritation after electrotransport administration; type: in vivo
Protocol: Nesiritide was administered to hairless guinea pigs, and the guinea pigs were monitored for skin irritation.

[2] = Stability on exposure to human epidermis; type: in vitro ADME
Protocol: as §1

[3] = Sedimentation equilibrium analytical ultracentrifugation (XLA), self-association; type: physicochemical; set-up: M(1 − vbar * p) observed: unit not given beside the values; details: for Residual Pattern / M(1 − vbar * p) observed: 10 mM ionic; for M(1 − vbar * p) observed: 32° C., 44,000 rpm
Protocol: Nesiritide's tendency towards self-association was assessed using sedimentation equilibrium analytical ultracentrifugation (XLA). An increase in the concentration of peptide in the donor formulation usually is expected to produce an increase in the rate of transport. With many peptides, raising the peptide concentration in solution will also heighten any tendency toward self-association. The conditions of the donor formulation are selected to maximize delivery and minimize aggregation. The development of peptide aggregates in solution can be determined directly by analytical ultracentrifugation. The sensitivity of detection requires at least 5% of the peptide exist as an aggregate.
Solutions of nesiritide at pH 6 and 7, (10 mM ionic imidazole) and pH 8 (10 mM ionic serinamide) were analyzed by sedimentation equilibrium ultracentrifugation. Samples were centrifuged to equilibrium at 44,000 rpm at 32° C., overnight. Absorbance as a function of radial position was determined at 258 nm.
When a highly charged peptide, such as nesiritide at pH 7, is formulated in a low ionic strength buffer, it will behave in a nonideal manner. Under such conditions, the apparent buoyant molecular weight will be lowered because of charge-charge repulsion. Theory has not been developed to estimate the magnitude of this effect when the bulk of the solution ionic strength arises from the peptide and its counter ions (as opposed to the case where the buffer ions contribute the majority of the ionic strength). The calculated value for M(1−vbar*ρ), given in the table below, was based on the behavior expected under ideal conditions.

[4] = In vitro electrotransport of nesiritide across heat-separated human epidermis (ET cells, solution donor); type: in vitro ADME
Protocol: Nesiritide was screened in vitro for its electrotransport (ET) properties with heat-separated human epidermis/stratum corneum (skin).
In vitro electrotransport of nesiritide across heat-separated human epidermis/stratum corneum was conducted using anodic drive with ET cells in three separate sets of experiments, using human epidermis from three sources under the conditions set forth in the table below.
The pH of donor solutions was monitored before and after the experiments. The amount of passive transport was determined in fully assembled ET cells, incubated at 32° C. for 1 hour, with subsequent analysis of the receptor solution by RP-HPLC. […] The applied constant current was 100 μA/cm^2. The receptor solution was removed for analysis and replenished at 2 hour intervals during the first eight hours of testing, and then after 24 hours and 26 hours. The voltage drop across each cell was monitored at intervals throughout the experiment. Additionally, after the completion of transport studies, the solutions from some donor compartments were removed and analyzed either for evidence of peptide degradation or for pH changes.
When comparing data obtained using different conditions during ET Flux, it is thought to be more useful to compare the median values for each case (Holladay, L. A. 1995; personal communications). The use of the median as a figure of merit for ET flux data decreases the impact of both measurement and recovery problems for cells with low transport values. It also minimizes the impact of data from ECs with higher values, which may represent skin that was partially leaking. In order to compare the values of the median from different studies, it is necessary to have an estimate of the confidence interval for each median. If the values for the medians are different, but the confidence intervals overlap, then the results are not truly distinguished. For this work with nesiritide, a Bootstrap method (Diciccio, T. J., Romano, J. P. A Review of Bootstrap Confidence Intervals, J. R. Statist Soc B, 1988; 50 338-354; Efron, B., Tibshirani, R. Bootstrap Methods for Standard errors, Confidence Intervals, and Other Measures of Statistical Accuracy, Statistical Science, 1986; 1 54-77) was used to determine 95% and 67% confidence intervals for the data sets compared. The method estimates the intervals using considerable amounts of computation; 32,000 trials of the algorithm were used for these analyses.

[5] = 3 mg/mL (~1 mM), pH 6 (imidazole)
[6] = 3 mg/mL (~1 mM), pH 7 (imidazole)
[7] = 3 mg/mL (~1 mM), pH 8 (serinamide)
[8] = 10 mg/mL (~3 mM), pH 7 (imidazole)
[9] = 8 hour delivery, study a & c, fresh skin, combine 1 mM & 3 mM, 100 μA/cm^2
[10] = 8 hour delivery, study a & c, fresh skin, donor 1 mM, 100 μA/cm^2
[11] = 8 hour delivery, study b, frozen skin, donor 1 mM, 100 μA/cm^2
[12] = 8 hour delivery, study b, frozen skin, donor 3 mM, 100 μA/cm^2
[13] = 8 hour delivery, study c, fresh skin, donor 3 mM, 100 μA/cm^2

## CC[C@H](C)[C@@H]1NC(=O)[C@H](CCCNC(=N)N)NC(=O)[C@H](CC(=O)O)NC(=O)[C@H](CCSC)NC(=O)[C@H](CCCCN)NC(=O)[C@H](CCCNC(=N)N)NC(=O)CNC(=O)[C@H](Cc2ccccc2)NC(=O)[C@@H](NC(=O)CNC(=O)[C@H](CO)NC(=O)CNC(=O)[C@H](CCC(N)=O)NC(=O)[C@@H](NC(=O)[C@H](CCSC)NC(=O)[C@H](CCCCN)NC(=O)[C@@H]2CCCN2C(=O)[C@@H](N)CO)C(C)C)CSSC[C@@H](C(=O)N[C@@H](CCCCN)C(=O)N[C@H](C(=O)N[C@@H](CC(C)C)C(=O)N[C@@H](CCCNC(=N)N)C(=O)N[C@@H](CCCNC(=N)N)C(=O)N[C@@H](Cc2c[nH]cn2)C(=O)O)C(C)C)NC(=O)CNC(=O)[C@H](CC(C)C)NC(=O)CNC(=O)[C@H](CO)NC(=O)[C@H](CO)NC(=O)[C@H](CO)NC(=O)[C@H](CO)NC1=O [Nesiritide, nesiritide]
[1]; pH 6, 7 or 8, without human epidermis, 32° C., 8-hour
  stability: considerable stability
[1]; pH 6 and 7, 24-hour incubation at 32° C.
  stability: remained stable
[1]; pH 6 or 7, after 24 hours at 32° C.
  degradation: minimal
[1]; pH 8, 24-hour incubation at 32° C.
  stability: considerable loss of nesiritide
[1]; selected donor solutions following ET flux
  peptide degradation or change in disulfide bond in donor solutions: no peptide degradation or change in the disulfide bond
Hairless guinea pigs; 0.1 mA/cm^2
  skin irritation: mild
Hairless guinea pigs; 0.2 mA/cm^2
  skin irritation: mild
[2]; following exposure to human epidermis
  resistance to destruction: quite resistant to destruction
[2]; pH 7, 24-hour, 32° C., with added human skin
  stability with added human skin: no destruction
[3]; [5]
  Residual Pattern: nonideal
  M(1 − vbar * p) observed: 630
[3]; [6]
  Residual Pattern: flat
  M(1 − vbar * p) observed: 644
[3]; [7]
  Residual Pattern: polydisperse
  M(1 − vbar * p) observed: 884
[3]; [8]
  Residual Pattern: nonideal
  M(1 − vbar * p) observed: 703
[3]; all conditions tested, by ultracentrifugation
  self-association: no indication of self-association
[3]; highest concentration analyzed, 3 mM, 10 mg/mL at pH 7 in 10 mM ionic buffer
  association state: remained monomeric
[4]; 1 mM and 3 mM donor combined, 95% confidence interval of 1.2-2.1
  comprehensive median value for transport through human skin: 1.6 μg cm^−2h^−1
[4]; 1 mM and 3 mM, study a & c, sampling up to 8 h, fresh skin
  Mean electrotransport flux: 4.7 μg cm^−2 h^−1
[4]; 1 mM and 3 mM, study b, sampling 8 h–26 h, frozen skin
  Mean electrotransport flux: 1.5 μg cm^−2 h^−1
[4]; 1 mM and 3 mM, study b, sampling up to 8 h, frozen skin
  Mean electrotransport flux: 18.6 μg cm^−2 h^−1
[4]; 1 mM and 3 mM, study c, sampling 8 h–26 h, fresh skin
  Mean electrotransport flux: 1.3 μg cm^−2 h^−1
[4]; [9]
  Mean electrotransport flux: 4.7 μg cm^−2 h^−1
  Median electrotransport flux: 1.6 μg cm^−2 h^−1
[4]; [10]
  Mean electrotransport flux: 3.0 μg cm^−2 h^−1
  Median electrotransport flux: 1.6 μg cm^−2 h^−1
[4]; [11]
  Mean electrotransport flux: 10.7 μg cm^−2 h^−1
  Median electrotransport flux: 6.3 μg cm^−2 h^−1
[4]; [12]
  Mean electrotransport flux: 24.9 μg cm^−2 h^−1
  Median electrotransport flux: 5.6 μg cm^−2 h^−1
[4]; [13]
  Mean electrotransport flux: 8.2 μg cm^−2 h^−1
  Median electrotransport flux: 2.0 μg cm^−2 h^−1
[4]; by 24 hours (FIG. 2)
  transport with respect to time: approaches zero transport
[4]; comparison of donor 1 mM and 3 mM (FIG. 3)
  median values for transport, donor 1 mM versus 3 mM: not significantly different
[4]; fresh skin, Mid-time 0
  Median Transport: 0 μg cm^−2 h^−1
[4]; fresh skin, Mid-time 0.6
  Median Transport: 4.00 μg cm^−2 h^−1
[4]; fresh skin, Mid-time 2.2
  Median Transport: 2.01 μg cm^−2 h^−1
[4]; fresh skin, Mid-time 4.2
  Median Transport: 1.55 μg cm^−2 h^−1
[4]; fresh skin, Mid-time 6.2
  Median Transport: 1.06 μg cm^−2 h^−1
[4]; fresh skin, Mid-time 16
  Median Transport: 0.37 μg cm^−2 h^−1
[4]; fresh skin, Mid-time 25
  Median Transport: 0.80 μg cm^−2 h^−1
